# Laboratory results: PubChem BioAssay (NCI)
#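 Following 48 hours of exposure in 96-well plates, responses at five concentrations were used to interpolate endpoints linearly. At the TGI there is no net growth.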
# Key:
# Experiment in all cases: NCI tumour cell line growth inhibition, 48 h
# [1] = system: RXF-631 renal
# [2] = system: M19-MEL melanoma
# [3] = system: P388/ADR leukemia
# [4] = system: P388 leukemia
# [5] = system: SNB-78 CNS
SMILES,TGI [1] [µM],TGI [2] [µM],TGI [3] [µM],TGI [4] [µM],TGI [5] [µM]
OCC(O)COc1ccc(Br)cc1 (stereo not given),> 100,,,,
Cc1ccc(OP2(=O)Oc3ccc4ccccc4c3CN2c2ccc(Cl)cc2)cc1C (stereo not given),,> 100,> 100,> 100,> 100
